These results are taken from patent US9751850B2, “TRPA1 antagonists” (AbbVie Inc., priority 2008, dated 2017).

The IC50 is the concentration needed to halve the response being measured. A lower IC50 goes with greater potency in that assay.

Sequence of Human TRPA1 (O75762 whole entry): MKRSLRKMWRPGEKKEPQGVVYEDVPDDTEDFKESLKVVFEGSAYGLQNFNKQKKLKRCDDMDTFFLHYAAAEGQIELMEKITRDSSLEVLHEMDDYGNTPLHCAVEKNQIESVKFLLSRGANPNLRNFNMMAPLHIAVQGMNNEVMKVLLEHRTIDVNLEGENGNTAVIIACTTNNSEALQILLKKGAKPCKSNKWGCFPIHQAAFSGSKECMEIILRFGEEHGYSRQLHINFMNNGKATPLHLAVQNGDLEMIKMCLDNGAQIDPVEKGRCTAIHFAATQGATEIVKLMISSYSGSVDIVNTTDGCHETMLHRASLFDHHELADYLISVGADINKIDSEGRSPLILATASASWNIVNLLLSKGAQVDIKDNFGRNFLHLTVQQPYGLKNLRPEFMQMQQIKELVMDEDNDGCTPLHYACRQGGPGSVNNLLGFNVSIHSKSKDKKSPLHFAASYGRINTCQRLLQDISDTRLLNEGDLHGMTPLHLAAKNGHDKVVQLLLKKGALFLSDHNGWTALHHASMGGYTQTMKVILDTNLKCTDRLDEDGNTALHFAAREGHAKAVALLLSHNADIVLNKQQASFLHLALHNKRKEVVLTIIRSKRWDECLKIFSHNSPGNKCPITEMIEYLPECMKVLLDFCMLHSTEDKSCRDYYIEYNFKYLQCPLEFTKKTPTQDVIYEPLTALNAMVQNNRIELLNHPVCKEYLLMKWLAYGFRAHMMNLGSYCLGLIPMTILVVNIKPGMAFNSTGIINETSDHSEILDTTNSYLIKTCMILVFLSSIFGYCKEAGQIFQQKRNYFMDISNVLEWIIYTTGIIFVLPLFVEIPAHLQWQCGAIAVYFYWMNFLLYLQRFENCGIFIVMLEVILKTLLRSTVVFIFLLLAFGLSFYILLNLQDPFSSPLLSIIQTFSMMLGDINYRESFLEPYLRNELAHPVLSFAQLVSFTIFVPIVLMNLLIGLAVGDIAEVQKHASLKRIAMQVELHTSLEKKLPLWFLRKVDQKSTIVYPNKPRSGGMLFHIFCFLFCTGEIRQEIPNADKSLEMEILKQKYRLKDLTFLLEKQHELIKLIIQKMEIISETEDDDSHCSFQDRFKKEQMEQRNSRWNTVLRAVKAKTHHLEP

This experiment deals with Human TRPA1 (Homo sapiens (Human), UniProt O75762). Put plainly: FLIPR based intracellular Ca2+ assay and membrane potential assay, AITC-activated TRPA1. Type of experiment: cell-based. The settings on record: hTRPA1 transiently expressed in HEK293-F cells, AITC as agonist. As to the method:
Molecular biology and transient expression were performed as described in Chen, J. et al., Journal of Biomolecular Screening 2007, 12, 61-69. Briefly, TRPA1 full length cDNA was amplified from human dorsal root ganglia total RNA (BD Bioscience Clontech, Palo Alto, Calif., USA) and was cloned into pcDNA3.1/V5-His Topo vector (Invitrogen, Carlsbad, Calif.). Large scale transient transfection was performed using the FreeStyle™ 293 Expression System as recommended by the manufacturer (Invitrogen). HEK293-F cells were grown in suspension in flasks (cell volume 30 ml, to 1 liter) or in a Wave Bioreactor (Wave Biotech, Somerset, N.J. (6 liters). To support high density, suspension culture and transfection, cells were cultured in Free Style 293 media, an optimized, serum free formulation. 293fectin™ (Invitrogen) was used as transfection reagent. In a transfection of 3×10^7 cells (30 mL volume), 30 μg of plasmid DNA and 40 μL 293 fectin were used. For a larger volume transfection, each reagent was scaled up proportionally. Two days post-transfection, cells were harvested by centrifugation (1000×g, 5 minutes) and resuspended to a density of 1.5×10^7 cells/mL in freezing medium (Freestyle media/10% serum/10% DMSO). Cells were transferred into cryovials in 2 mL aliquots, and these vials were placed in Nalgene Mr. Frosty slow-freeze devices (Sigma-Aldrich, St. Louis, Mo.) at −80° C. As needed, vials were removed from −80° C. and quickly thawed in a 37° C. water bath. Cells were aseptically transferred into conical tubes containing Freestyle media (10 mL/vial). After centrifugation at 1,000×g for 3-5 minutes, medium was removed by aspiration and cells were resuspended in Freestyle medium at desired densities (typically 1×10^6 cells/mL). Re-suspended cells were seeded into black-walled clear-bottom 96-well Biocoat™ poly-D-lysine assay plated (BD Biosciences, Bedford, Mass.) (10^5 cells/well) and incubated overnight at 37° C. under a humidified 5% CO2 atmosphere.
Ca^2+ influx was measured using a FLIPR calcium assay kit (R8033; Molecular Devices, Sunnyvale, Calif.). The Ca^2+ indicator dye was dissolved in Hanks' balanced salt solution supplemented with 20 mM HEPES buffer (HBSS/HEPES) according to the manufacturer instructions. Prior to start of the assay, the medium was removed by aspiration, and cells were loaded with 100 μL Ca^2+ dye for 2 to 3 hours at room temperature. AITC (allyl isothiocyanate) was used to activate and open the channels. (4×) solutions of the test compounds were prepared in HBSS/HEPES, and 50 μL were added to the cells at a delivery rate of 10 μL/sec. Changes in fluorescene were measured over time in a fluorometric imaging plate reader (FLIPR), Molecular Devices). Two additions were made over the course of an experimental run. For agonist experiments, assay buffer was added at the 10 s time point, followed by addition of agonist at the 3 minute 10 sec time point. For antagonist experiments, the antagonist was added at the 10 sec time point, followed by addition of the agonist 3 minutes later. Final assay volume for both the agonist and antagonist experiments was 200 μL. Total length of an experimental run was 6.5 minutes.
Data was analyzed with GraphPad Prism® software (GraphPad Software, San Diego, Calif.), using a four-parameter logistic Hill equation to curve-fit concentration-effect data and derive EC50 or IC50 values. Numerical values are reported as mean±SEM (n=number of experiments). SEM is calculated by dividing the standard deviation by the square root of the sample size […].
Changes in membrane potential were measured in hTRPA1-expressing LSTT cells using a FLIJPR membrane potential assay kit (R8034, Molecular Devices). The procedure for thawing and plating the LSTT cells was identical to the Ca^2+ influx assay (see above). […]
`CCC(=N\O)/C(C)=C/c1cnc2ccccc2c1` [Example 8, (1E,3E)-2-methyl-1-quinolin-3-ylpent-1-en-3-one oxime] registered a concentration for half-maximal inhibition (IC50) of over 100 µM. The value for `CCC(=N\O)/C(C)=C/c1ccc(C(F)(F)F)nc1` [Example 10, (1E,3E)-2-methyl-1-[6-(trifluoromethyl)pyridin-3-yl]pent-1-en-3-one oxime] was over 100 µM; that for `CCC(=N\O)/C(C)=C/c1ccc(F)nc1` [Example 1, (1E,3E)-1-(6-fluoropyridin-3-yl)-2-methylpent-1-en-3-one oxime] was 1.25 µM; that for `CCC(=N\O)/C(C)=C/c1ccncc1` [Example 6, (1E,3E)-2-methyl-1-pyridin-4-ylpent-1-en-3-one oxime] was 8.61 µM.

`CCC(=N\O)/C(C)=C/c1ccsc1` [Example 4, (1E,3E)-2-methyl-1-thien-3-ylpent-1-en-3-one oxime] registered an IC50 of 1.32 µM. To `CCC(=N\O)/C(C)=C/c1cccnc1` [Example 5, (1E,3E)-2-methyl-1-pyridin-3-ylpent-1-en-3-one oxime] belongs 17 µM.

For `CCC(=N\O)/C(C)=C/c1cnccc1C` [Example 9, (1E,3E)-2-methyl-1-(4-methylpyridin-3-yl)pent-1-en-3-one oxime], the IC50 is over 100 µM. To `CCC(=N\O)/C(C)=C/c1cccs1` [Example 2, (1E,3E)-2-methyl-1-thien-2-ylpent-1-en-3-one oxime] belongs 11 µM. Compound `CCC(=N\O)/C(C)=C/c1cncc2ccccc12` [Example 11, (1E,3E)-1-(isoquinolin-4-yl)-2-methylpent-1-en-3-one oxime] displayed an IC50 of over 100 µM. In turn, `CCC(=N\O)/C(C)=C/c1ccc(C)nc1` [Example 7, (1E,3E)-2-methyl-1-(6-methylpyridin-3-yl)pent-1-en-3-one oxime] gave an IC50 of over 100 µM. The value for `CCC(=N\O)/C(C)=C/c1ccc(OC)nc1` [Example 3, (1E,3E)-1-(6-methoxypyridin-3-yl)-2-methylpent-1-en-3-one oxime] was 23.4 µM.
